Data taken from US5844100A, “Ink compositions containing azo dyes for ink jet printing” (Ilford Imaging Switzerland GmbH, priority 1995, dated 1998).

Assays:
[1] = Absorption maximum (λ max) in H2O; assay type: physicochemical
[2] = Dye solubility in water at 20° C., determined spectroscopically; assay type: physicochemical; settings: heated at 50° C. 1 hour, cooled to 20° C., filtered
Method: The solubilities of the dyes according to the invention were determined as follows:
An excess of dye was heated at 50° C. in water with stirring for one hour. The mixture was then cooled down to 20° C. and filtered, and the dye content of the clear solution was determined spectroscopically.

Row | SMILES | λ max (nm) in H2O [1] [nm] | Solubility (in g per 100 ml) [2] [g per 100 ml]
1 | Nc1ccc2cc(S(=O)(=O)O)cc(O)c2c1N=Nc1ccc(Nc2nc(SCCCS(=O)(=O)O)nc(SCCCS(=O)(=O)O)n2)cc1S(=O)(=O)O [Compound 118] | 518 | 43
2 | CCCCCCNc1nc(NCCCCCC)nc(Nc2cc(S(=O)(=O)O)cc3cc(S(=O)(=O)O)c(N=Nc4ccccc4S(=O)(=O)O)c(O)c23)n1 [dye 5, reference compound] | – | 17
3 | CCCCCC(=O)Nc1cc(S(=O)(=O)O)cc2cc(S(=O)(=O)O)c(N=Nc3cc(Nc4nc(SCCCS(=O)(=O)O)nc(SCCCS(=O)(=O)O)n4)c(OC)cc3S(=O)(=O)O)c(O)c12 [Compound 109] | 530 | –
4 | Cc1cc(N=Nc2c(Nc3c(C)cccc3C)ccc3cc(S(=O)(=O)O)cc(O)c23)c(S(=O)(=O)O)cc1Nc1nc(SCCCS(=O)(=O)O)nc(SCCCS(=O)(=O)O)n1 [Compound 120] | 529 | –
5 | COc1cc(N=Nc2c(N)ccc3cc(S(=O)(=O)O)cc(O)c23)c(C)cc1Nc1nc(NCCO)nc(Nc2cccc(S(=O)(=O)O)c2)n1 [dye 1, reference compound] | – | 11
6 | O=C(O)CCNc1ccc2cc(S(=O)(=O)O)cc(O)c2c1N=Nc1ccc(Nc2nc(SCCCS(=O)(=O)O)nc(SCCCS(=O)(=O)O)n2)cc1S(=O)(=O)O [Compound 119] | 535 | –
7 | O=S(=O)(O)CCCSc1nc(Nc2ccc(S(=O)(=O)O)c3cc(S(=O)(=O)O)c(N=Nc4ccc5c(S(=O)(=O)O)cccc5c4S(=O)(=O)O)c(O)c23)nc(SCCCS(=O)(=O)O)n1 [Compound 122] | 543 | –
8 | COc1cc(S(=O)(=O)O)c(N=Nc2c(NCCC#N)ccc3cc(S(=O)(=O)O)cc(O)c23)cc1Nc1nc(SCCCS(=O)(=O)O)nc(SCCCS(=O)(=O)O)n1 [Compound 121] | 542 | –
9 | COc1cc(N=Nc2cccc(S(=O)(=O)O)c2)c(C)cc1Nc1nc(SCCCCS(=O)(=O)O)nc(SCCCCS(=O)(=O)O)n1 [Compound 104] | 383 | –
10 | CC(=O)Nc1cc(Nc2nc(SCCCS(=O)(=O)O)nc(SCCCS(=O)(=O)O)n2)ccc1N=Nc1cc(S(=O)(=O)O)c2cccc(S(=O)(=O)O)c2c1 [Compound 102] | 394 | –
11 | COc1cc(N=Nc2cc(S(=O)(=O)O)c3cccc(S(=O)(=O)O)c3c2)c(C)cc1Nc1nc(SCCCS(=O)(=O)O)nc(SCCCS(=O)(=O)O)n1 [Compound 100] | 401 | 34
12 | Cc1cc(Nc2nc(SCCCS(=O)(=O)O)nc(SCCCS(=O)(=O)O)n2)ccc1N=Nc1cc(S(=O)(=O)O)c2cccc(S(=O)(=O)O)c2c1 [Compound 103] | 383 | 30

Other lines, results leading:

Row | λ max (nm) in H2O [1] [nm] | Solubility (in g per 100 ml) [2] [g per 100 ml] | SMILES
13 | 526 | – | O=S(=O)(O)CCCSc1nc(Nc2ccc(N=Nc3c(S(=O)(=O)O)cc4cccc(NS(=O)(=O)c5ccc(Br)cc5)c4c3O)c(S(=O)(=O)O)c2)nc(SCCCS(=O)(=O)O)n1 [Compound 111]
14 | 527 | – | Cc1ccc(S(=O)(=O)Nc2cc(S(=O)(=O)O)cc3cc(S(=O)(=O)O)c(N=Nc4cc(Nc5nc(SCCCS(=O)(=O)O)nc(SCCCS(=O)(=O)O)n5)ccc4S(=O)(=O)O)c(O)c23)cc1 [Compound 113]
15 | 555 | – | COc1ccc(N=Nc2c(S(=O)(=O)O)cc3cc(S(=O)(=O)O)cc(Nc4nc(SCCCS(=O)(=O)O)nc(SCCCS(=O)(=O)O)n4)c3c2O)cc1S(=O)(=O)O [Compound 116]
16 | 543 | – | Cc1ccc(N=Nc2c(S(=O)(=O)O)cc3cc(S(=O)(=O)O)cc(Nc4nc(SCCCS(=O)(=O)O)nc(SCCCS(=O)(=O)O)n4)c3c2O)c(S(=O)(=O)O)c1 [Compound 115]
17 | 512 | 44 | O=C(Nc1cc(S(=O)(=O)O)cc2cc(S(=O)(=O)O)c(N=Nc3cc(Nc4nc(SCCCS(=O)(=O)O)nc(SCCCS(=O)(=O)O)n4)ccc3S(=O)(=O)O)c(O)c12)c1ccccc1 [Compound 112]
